# Measurements published in patent US20260355196A1, “INHIBITORS AND DEGRADERS OF PIP4K PROTEIN” (Larkspur Biosciences, Inc., priority 2023, published 2026).
# Target: T1, PIP4K2C (Homo sapiens, UniProt Q8TBX8)
# T1 sequence (Q8TBX8 1-421): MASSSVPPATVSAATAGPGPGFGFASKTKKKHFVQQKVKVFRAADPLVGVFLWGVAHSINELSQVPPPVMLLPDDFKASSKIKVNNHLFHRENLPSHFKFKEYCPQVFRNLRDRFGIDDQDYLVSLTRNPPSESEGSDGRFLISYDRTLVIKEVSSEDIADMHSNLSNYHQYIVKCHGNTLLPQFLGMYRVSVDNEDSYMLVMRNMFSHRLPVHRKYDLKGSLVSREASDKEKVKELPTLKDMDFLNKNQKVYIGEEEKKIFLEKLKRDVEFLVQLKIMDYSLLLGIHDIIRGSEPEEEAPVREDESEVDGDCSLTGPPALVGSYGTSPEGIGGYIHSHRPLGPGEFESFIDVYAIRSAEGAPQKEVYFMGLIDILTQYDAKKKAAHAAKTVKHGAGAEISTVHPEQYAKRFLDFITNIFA
# Assay: Enzyme Binding Assay (KINOMEscan): active site-directed competition binding to an immobilized ligand
# Design: purchased Eurofins DiscoverX, San Diego, CA 87-0007-1094
# Conditions: 11-point dose response, duplicate, top concentration 5 micromolar; read-out: Pip4k2c Kd: IC50
# Procedure, shortened: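 Active site-directed competition binding against an immobilized ligand. 11-point dose-response in duplicate, top concentration 5 micromolar; IC50 from a Hill equation fitted by the Levenberg-Marquardt algorithm.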
row,Compound,IC50 [nM]
1,"CNC(=O)[C@H]1C[C@H](Nc2ncc(Cl)c(-c3cc(C4CC4)[nH]n3)n2)C1 [Compound 162, trans-(1r,3r)-3-((5-chloro-4-(5-cyclopropyl-1H-pyrazol-3-yl)pyrimidin-2-yl)amino)-N-methylcyclobutane-1-carboxamide]",< 500
2,"CNC(=O)[C@H]1C[C@@H](Nc2ncc(Cl)c(-c3cnn(-c4ccc(=O)[nH]c4)c3)n2)C1 [Compound 164, cis-3-((5-chloro-4-(1-(6-oxo-1,6-dihydropyridin-3-yl)-1H-pyrazol-4-yl)pyrimidin-2-yl)amino)-N-methylcyclobutane-1-carboxamide]",< 500
3,"CC(=O)N1CCC(Nc2ncc(F)c(-c3cccc(C4(O)COC4)c3)n2)CC1 [Compound 171, 1-(4-((5-fluoro-4-(3-(3-hydroxyoxetan-3-yl)phenyl)pyrimidin-2-yl)amino)piperidin-1-yl)ethan-1-one]",< 500
4,"CC(=O)N1CCC(Nc2ncc(F)c(-c3ccnc(C(C)(C)O)c3)n2)CC1 [Compound 172, 1-(4-((5-fluoro-4-(2-(2-hydroxypropan-2-yl)pyridin-4-yl)pyrimidin-2-yl)amino)piperidin-1-yl)ethan-1-one]",< 500
5,"CC(=O)N[C@H]1CC[C@H](Nc2ncc(F)c(-c3cccc(C4CCCN(C(C)=O)C4)c3)n2)CC1 (stereo partly drawn) [Compound 174, trans-N-(4-((4-(3-(1-acetylpiperidin-3-yl)phenyl)-5-fluoropyrimidin-2-yl)amino)cyclohexyl)acetamide]",< 500
6,"CC(=O)N[C@H]1CC[C@H](Nc2ncc(F)c(-c3cccc(C4COC4)c3)n2)CC1 [Compound 175, N-(trans-4-((5-fluoro-4-(3-(oxetan-3-yl)phenyl)pyrimidin-2-yl)amino)cyclohexyl)acetamide]",< 500
7,"CC(=O)N[C@H]1CC[C@H](Nc2ncc(F)c(-c3cccc(C4(O)COC4)c3)n2)CC1 [Compound 176, N-(trans-4-((5-fluoro-4-(3-(3-hydroxyoxetan-3-yl)phenyl)pyrimidin-2-yl)amino)cyclohexyl)acetamide]",< 500
8,"CC(=O)N1CCC(Nc2ncc(F)c(-c3cccc(C4CCCN(C(C)=O)C4)c3)n2)CC1 (stereo not shown) [Compound 179, 1-(4-((4-(3-(1-acetylpiperidin-3-yl)phenyl)-5-fluoropyrimidin-2-yl)amino)piperidin-1-yl)ethan-1-one]",< 500
9,"CC(=O)N1CCC(Nc2ncc(F)c(-c3cccc(-c4cc[nH]c(=O)c4)c3)n2)CC1 [Compound 187, 4-(3-(2-((1-acetylpiperidin-4-yl)amino)-5-fluoropyrimidin-4-yl)phenyl)pyridin-2(1H)-one]",< 500
10,"CC(=O)N[C@H]1CC[C@H](Nc2ncc(Cl)c(-c3cc(C4CC4)[nH]n3)n2)CC1 [Compound 190, trans-N-((1r,4r)-4-((5-chloro-4-(5-cyclopropyl-1H-pyrazol-3-yl)pyrimidin-2-yl)amino)cyclohexyl)acetamide]",< 500
11,"CNC(=O)[C@H]1CC[C@@H](Nc2ncc(Cl)c(-c3cc(C4CC4)[nH]n3)n2)CC1 [Compound 191, cis-(1s,4s)-4-((5-chloro-4-(5-cyclopropyl-1H-pyrazol-3-yl)pyrimidin-2-yl)amino)-N-methylcyclohexane-1-carboxamide]",< 500
12,"CC(=O)N1CCC[C@H](Nc2ncc(Cl)c(-c3cc(C4CC4)[nH]n3)n2)C1 [Compound 192, (S)-1-(3-((5-chloro-4-(5-cyclopropyl-1H-pyrazol-3-yl)pyrimidin-2-yl)amino)piperidin-1-yl)ethan-1-one]",< 500
13,"CC(=O)N1CCC(Nc2ncc(F)c(N3CCCC(c4ccc[nH]c4=O)C3)n2)CC1 (stereo not shown) [Compound 196, 3-[1-[2-[(1-acetyl-4-piperidyl)amino]-5-fluoro-pyrimidin-4-yl]-3-piperidyl]-1H-pyridin-2-one]",< 500
14,"CC(=O)N[C@H]1CC[C@H](Nc2ncc(F)c(N3CCC[C@@H](C(=O)NC4CC4)C3)n2)CC1 [Compound 197, trans-(R)-1-(2-((4-acetamidocyclohexyl)amino)-5-fluoropyrimidin-4-yl)-N-cyclopropylpiperidine-3-carboxamide]",1000 to 5000
15,"CC(=O)N[C@H]1CC[C@H](Nc2ncc(F)c(N3CCC[C@H](C(=O)NC4CC4)C3)n2)CC1 [Compound 198, trans-(S)-1-(2-((4-acetamidocyclohexyl)amino)-5-fluoropyrimidin-4-yl)-N-cyclopropylpiperidine-3-carboxamide]",1000 to 5000
16,"CC(=O)N1CCC(Nc2ncc(F)c(-c3cccc(-c4ccc(=O)[nH]c4)c3)n2)CC1 [Compound 202, 5-(3-(2-((1-acetylpiperidin-4-yl)amino)-5-fluoropyrimidin-4-yl)phenyl)pyridin-2(1H)-one]",< 500
17,"CC(=O)N[C@H]1CC[C@H](Nc2ncc(F)c(-c3cccc(-c4ccc(=O)[nH]c4)c3)n2)CC1 [Compound 203, trans-N-(4-((5-fluoro-4-(3-(6-oxo-1,6-dihydropyridin-3-yl)phenyl)pyrimidin-2-yl)amino)cyclohexyl)acetamide]",< 500

# The next lines start with the values.
row,IC50 [nM],Compound
1,500 to 1000,"CNC(=O)[C@H]1CC[C@@H](Nc2ncc(Cl)c(-c3cnn(-c4ccc(=O)[nH]c4)c3)n2)CC1 [Compound 163, cis-(1s,4s)-4-((5-chloro-4-(1-(6-oxo-1,6-dihydropyridin-3-yl)-1H-pyrazol-4-yl)pyrimidin-2-yl)amino)-N-methylcyclohexane-1-carboxamide]"
2,500 to 1000,"CNC(=O)[C@H]1CC[C@H](Nc2ncc(Cl)c(-c3cnn(-c4cc[nH]c(=O)c4)c3)n2)CC1 [Compound 165, trans-(1r,4r)-4-((5-chloro-4-(1-(2-oxo-1,2-dihydropyridin-4-yl)-1H-pyrazol-4-yl)pyrimidin-2-yl)amino)-N-methylcyclohexane-1-carboxamide]"
3,< 500,"CNC(=O)[C@H]1C[C@H](Nc2ncc(Cl)c(-c3cnn(-c4ccc[nH]c4=O)c3)n2)C1 [Compound 166, trans-(1r,3r)-3-((5-chloro-4-(1-(2-oxo-1,2-dihydropyridin-3-yl)-1H-pyrazol-4-yl)pyrimidin-2-yl)amino)-N-methylcyclobutane-1-carboxamide]"
4,500 to 1000,"CNC(=O)[C@H]1CC[C@@H](Nc2ncc(Cl)c(-c3cnn(-c4cccc(=O)[nH]4)c3)n2)CC1 [Compound 167, cis-(1s,4s)-4-((5-chloro-4-(1-(6-oxo-1,6-dihydropyridin-2-yl)-1H-pyrazol-4-yl)pyrimidin-2-yl)amino)-N-methylcyclohexane-1-carboxamide]"
5,< 500,"CC(=O)N1CCC(Nc2ncc(F)c(-c3cccc(C4COC4)c3)n2)CC1 [Compound 169, 1-(4-((5-fluoro-4-(3-(oxetan-3-yl)phenyl)pyrimidin-2-yl)amino)piperidin-1-yl)ethan-1-one]"
6,< 500,"NC(=O)[C@H]1CC[C@H](Nc2ncc(F)c(-c3cccc(C4COC4)c3)n2)CC1 [Compound 180, trans-4-((5-fluoro-4-(3-(oxetan-3-yl)phenyl)pyrimidin-2-yl)amino)cyclohexane-1-carboxamide]"
7,< 500,"NC(=O)[C@H]1CC[C@H](Nc2ncc(F)c(-c3cccc(C4(O)COC4)c3)n2)CC1 [Compound 181, trans-4-((5-fluoro-4-(3-(3-hydroxyoxetan-3-yl)phenyl)pyrimidin-2-yl)amino)cyclohexane-1-carboxamide]"
8,1000 to 5000,"CC(=O)N[C@H]1CC[C@H](Nc2ncc(F)c(N3CCOCC3)n2)CC1 [Compound 182, trans-N-(4-((5-fluoro-4-morpholinopyrimidin-2-yl)amino)cyclohexyl)acetamide]"
9,< 500,"CC(=O)N[C@H]1CC[C@H](Nc2ncc(F)c(-c3cccc(-c4cc[nH]c(=O)c4)c3)n2)CC1 [Compound 188, trans-N-(4-((5-fluoro-4-(3-(2-oxo-1,2-dihydropyridin-4-yl)phenyl)pyrimidin-2-yl)amino)cyclohexyl)acetamide]"
10,1000 to 5000,"CC(=O)N1CCC(Nc2ncc(F)c(N3CCCC(n4ccccc4=O)C3)n2)CC1 (stereo not shown) [Compound 189, 1-(1-(2-((1-acetylpiperidin-4-yl)amino)-5-fluoropyrimidin-4-yl)piperidin-3-yl)pyridin-2(1H)-one]"
11,< 500,"CNC(=O)[C@H]1C[C@@H](Nc2ncc(Cl)c(-c3cnn(-c4ccc[nH]c4=O)c3)n2)C1 [Compound 193, cis-3-((5-chloro-4-(1-(2-oxo-1,2-dihydropyridin-3-yl)-1H-pyrazol-4-yl)pyrimidin-2-yl)amino)-N-methylcyclobutane-1-carboxamide]"
12,1000 to 5000,"CC(=O)N1CCC[C@H](Nc2ncc(Cl)c(-c3cccc(-c4ccc(F)cc4)n3)n2)C1 [Compound 194, (S)-1-(3-((5-chloro-4-(6-(4-fluorophenyl)pyridin-2-yl)pyrimidin-2-yl)amino)piperidin-1-yl)ethan-1-one]"
13,< 500,"NC(=O)[C@H]1CC[C@H](Nc2ncc(F)c(-c3cccc(-c4cc[nH]c(=O)c4)c3)n2)CC1 [Compound 195, trans-4-((5-fluoro-4-(3-(2-oxo-1,2-dihydropyridin-4-yl)phenyl)pyrimidin-2-yl)amino)cyclohexane-1-carboxamide]"
14,500 to 1000,"CC(=O)N1CCC(Nc2ncc(F)c(N3CCCC(c4ccc(=O)[nH]c4)C3)n2)CC1 (stereo not shown) [Compound 199, 5-(1-(2-((1-acetylpiperidin-4-yl)amino)-5-fluoropyrimidin-4-yl)piperidin-3-yl)pyridin-2(1H)-one]"
